Experimental data reported in patent publication US7572828B2, “Identification of anti-HIV compounds inhibiting virus assembly and binding of nucleocapsid protein to nucleic acid” (The United States of America as represented by the …, priority 2002, dated 2009).

Columns and labels:
[1] = tested on: p24; details: unit not given
[2] = tested on: CEM-SS Leukemia cells; assay: Uptake of radio-labelled compound in cells; type: in vitro ADME
[3] = molecular target: T1, Gag precursor protein (Human immunodeficiency virus type 1 group M subtype B, UniProt P04591); assay: Secondary screen: disruption of in vitro assembly of Gag precursor protein into virus-like particles; type: biochemical; details: for disrupted viral assembly: artificial viral particles from recombinant Gag protein and tRNA; for EC50: in vitro, assay not given
T1 construct: human immunodeficiency virus type 1 Gag protein lacking the p6 domain; made in house
Text: A secondary screen was used to identify small molecules that disrupt in vitro assembly of Gag precursor protein into virus-like particles. Artificial viral particles were assembled from recombinant Gag protein and tRNA as previously described (see, e.g., Campbell & Rein, “In vitro assembly properties of human immunodeficiency virus type 1 Gag protein lacking the p6 domain” J. Virol. 73: 2270-2279, 1999). […]

[4] = tested on: HIV; assay: XTT-cytoprotection assay, cell based anti-HIV screening in CEM-SS cells; details: for XTT: protection from HIV infection
Text: One exemplary means to determine antiviral activity is with CEM-SS cells and virus (e.g., HIV-1RF) (MOI=0.01) using the XTT (2,3-bis[2-methoxy- 4-nitro-5-sulfophenyl]-5- [(phenylamino)carbonyl]-2H-tetrazolium hydroxide) cytoprotection assay (see, e.g., Weislow, et al, J. Natl. Canc. Inst. 81: 577-586, 1989; Rice PNAS 90:9721-9724, 1993; and Rice Antimicrob. Agents Chemother. 41:419-426, 1997). Briefly, cells are infected with HIV-1RF (or other virus to be tested) in the presence of various dilutions of test compounds (antimony or diphenyl compounds and controls). The cultures are incubated for seven days. […] The cell death is measured by XTT dye reduction. XTT is a soluble tetrazolium dye that measures mitochondrial energy output, similar to MTT. Positive controls using dextran sulfate (an attachment inhibitor) or 3′-Azido -2′-3′-dideoxythymidine, AZT (a reverse transcriptase inhibitor) are added to each assay. Individual assays are done in duplicate using a sister plate method.
Effective antiviral concentrations providing 50% cytoprotection (EC50), and cellular growth inhibitory concentrations causing 50% cytotoxicity (IC50) are calculated.
Cell based anti-HIV screening was performed in CEM-SS cells, using an XTT-cytoprotection assay (see, e.g., Weislow, et al, J. Natl. Canc. Inst. 81: 577-586, 1989; Rice PNAS 90:9721-9724, 1993; and Rice Antimicrob. Agents Chemother. 41:419-426, 1997)).

[5] = Tolerability in mice; type: in vivo
[6] = molecular target: T2, NC-p7 protein (Human immunodeficiency virus type 1 group M subtype B, UniProt P04591); assay: High throughput screen: disruption of association of viral NC-p7 protein with a biotinylated 28 base oligonucleotide; type: binding, HIV-1; details: 10 μM of test compound; hit threshold 100% inhibition
T2 construct: nucleocapsid p7 (NCp7) protein portion of the polyprotein
Method: A high throughput screen was used to detect small molecules that disrupted the association of viral NC-p7 protein with an oligonucleotide. The assay was performed using a Tomtec Quadra robotic system. NC protein was immobilized on Costar (Corning, N.Y.) high-bind polystyrene 96 well plates by incubating 100 μl 250 nM NC-p7 in phosphate buffered saline (PBS)/10 μM zinc chloride/10 mM β-mercaptoethanol/0.05% Tween overnight at 4° C. 200 μl of 2% BSA in PBS/10 μM zinc chloride/10 mM β-mercaptoethanol/0.05% Tween was added and incubated at room temperature for 1-2 hours in order to block the plates. The plates were then washed 2 times with 200 μl PBS/10 μM zinc chloride/10 mM β-mercaptoethanol/0.05% Tween using a Titertek M96V plate washer and stored overnight at 4° C. 5 nM biotinylated 28 base oligonucleotide (5′ […] 3′) in PBS/10 μM zinc chloride/10 mM β-mercaptoethanot/0.05% Tween was added to each well followed by 10 μM of test compound (in 20% dimethyl sulphoxide) from the Diversity Set and allowed to incubate at room temperature for 1 hour. Plates were then washed 3 times with 200 μl PBS/0.05% Tween. Binding of the biotinylated 28 mer was measured by adding 100 μl 1:20000 dilution of nutravidin-horse radish peroxidase (stock 0.8 mg/ml, from Pierce Chemical Co. Rockford, Ill.) and incubating at room temperature for 1 hour. The plates were washed 3 times with 200 μl PBS/0.05% Tween. Plates were developed by adding 100 μl of Supersignal (Pierce Chemical Co. Rockford, Ill.) and bioluminescence was measured in a Wallac Victor plate reader. […] The hit threshold was set at 100% inhibition.

Compound | p24 assay [1] | uptake of the compound in cells [2] | disrupted viral assembly [3] | EC50 [3] | activity in the cell based assay (XTT cytoprotection ranking) [4] | XTT [4] | tolerability in vivo [5] | Active compounds identified in high throughput screen (disruption of NC-p7/oligonucleotide association) [6]
O=C(O)/C=C/c1ccc[c]([Sb](=[O])([OH])[OH])c1 [NSC 13778] | 0.11 | energy-dependent uptake | disrupted viral assembly | 3.8 µM | active | A (active (80-100% protection from HIV infection)) | tolerated in vivo | Active
COC(=O)c1ccc[c]([Sb](=[O])([OH])[OH])c1 [NSC 13771] | 0.2 | – | disrupted viral assembly | 5.5 µM | – | I (inactive (0-49% protection)) | – | –
NC(=O)c1ccc[c]([Sb](=[O])([OH])[OH])c1 [NSC 13765] | 0.41 | – | disrupted viral assembly | 3.75 µM | active | A (active (80-100% protection from HIV infection)) | – | –
O=C(O)c1cc[c]([Sb](=[O])([OH])[OH])cc1 [NSC 13760] | 0.29 | – | disrupted viral assembly | 1.15 µM | active | A (active (80-100% protection from HIV infection)) | – | –
O=C(O)c1cc[c]([Sb](=[O])([OH])[OH])cc1[N+](=O)[O-] [NSC 13755] | 0.21 | – | disrupted viral assembly | 6.15 µM | active | A (active (80-100% protection from HIV infection)) | – | Active
O=C(O)c1ccc(C(=O)c2ccccc2C(=O)O)cc1C(=O)O [NSC 28620] | – | – | disrupted viral assembly | – | active | – | – | Active
CCOC(=O)CCCc1cc[c]([Sb](=[O])([OH])[OH])cc1 [NSC 13793] | 0.14 | – | disrupted viral assembly | 3.25 µM | – | I (inactive (0-49% protection)) | – | –
O=S(=O)(O)c1cc[c]([Sb](=[O])([OH])[OH])cc1 [NSC 13746] | – | – | disrupted viral assembly | 10 µM | active | A (active (80-100% protection from HIV infection)) | – | Active
O=C(O)c1ccc[c]([Sb](=[O])([OH])[OH])c1 [NSC 13759] | 0.19 | – | disrupted viral assembly | 1.5 µM | active | A (active (80-100% protection from HIV infection)) | – | –
O=C(NCCO)c1ccc[c]([Sb](=[O])([OH])[OH])c1 [NSC 13782] | – | – | – | – | exhibited activity | – | – | –
